Publication PMC6801405, “Discovery of 3-Arylquinoxaline Derivatives as Potential Anti-Dengue Virus Agents” (International Journal of Molecular Sciences, 2019)
Where two headings read alike, the source gives them in different places.

Key:
DENV2 [1] = details: DENV2 in VERO-B cells; cited from earlier work
Huh-7 cells [2] = test: Cytotoxicity assay (XTT method); format: cell-based, Human; details: Huh-7 cells
Description: (§1) For cytotoxicity tests, run in parallel with antiviral assays, plates at an initial density of 5 × 10^3 cells/well were treated with or without serial dilutions of test compounds. Cell viability was determined after 72 h at 37 °C in a humidified CO2 (5%) atmosphere by the (2,3-bis[2-methyloxy-4-nitro-5-sulfophenyl]-2H-tetrazolium-5-carboxanilide) (XTT) method.

[3] = Cytotoxicity assay (XTT method); format: cell-based, Human; details: human, mean ± SD; for CC50 at 72 h: uninfected Huh-7 cells, read-out: CC50 (concentration causing a 50% growth inhibition of uninfected Huh-7 cells)
Description: as §1

DENV2 [4] = test: microbe, parasite or virus in culture; format: cell-based, dengue virus; details: for SI (selectivity index, CC50/EC50): CC50 Huh-7 / EC50 DENV; for EC50: DENV2, DENV replication, read-out: EC50 (concentration resulting in a 50% inhibition in virus production)
DENV2 [5] = system: DENV2; parameters: method as in PMID 29031073; details: cited from earlier work
DENV-2 = system: DENV-2; parameters: method as in PMID 29031073; details: cited from earlier work; for EC50: anti-DENV-2 activity
Huh-7 cells [6] = system: Huh-7 cells; parameters: method as in PMID 29031073; details: cited from earlier work
DENV = system: DENV; parameters: method as in PMID 27750144; details: against DENV; cited from earlier work

In the case of `O=C(NCc1ccc(-c2ccncc2)cc1)c1nccnc1C(=O)Nc1ccc(F)cc1` [Compound 1, N^2-(4-fluorophenyl)-N^3-[4-(pyridin-4-yl)benzyl]pyrazine-2,3-dicarboxamide], the EC50 (DENV2 [1]) is listed as 0.93 µM.

With `COc1ccc(C(=O)c2nc3ccccc3nc2-c2ccccc2)cc1` [Compound 21b, (4-Methoxyphenyl)(3-phenylquinoxalin-2-yl)methanone] the cytotoxicity in words (Huh-7 cells [2]) was “non-cytotoxic”, the viability at 72 h, 20 µM ([3]; Huh-7 cells, 20 μM, 72 h, XTT, read-out: Huh-7 Cell % viability at 20 μM) was 106 ± 3.12% and the viability at 72 h, 200 µM ([3]; Huh-7 cells, 200 μM, 72 h, XTT, read-out: Huh-7 Cell % viability at 200 μM) was 95.1 ± 4.32%. For the same molecule, the CC50 at 72 h [3] was over 200 µM, the “anti-DENV activity in words” value (DENV2 [4]; 10 μM, >32% inhibition of DENV-2 at 10 μM considered as active) was “highly active” and the “DENV2 % Inhibition at 10 μM” value (DENV2 [4]; 10 μM, Huh-7-DV-Fluc cells, three days, mean ± SD) was 51.85 ± 3.52%. The “SI (selectivity index, CC50/EC50)” value (DENV2 [4]) was over 61.54, the inhibition at 1 µM (DENV2 [4]; Dengue virus, DENV2, 72 h, 1 μM, Huh-7-DV-Fluc cells, three days, mean ± SD) was 42.8 ± 5.13% and the inhibition at 10 µM (DENV2 [4]; Dengue virus, DENV2, 72 h, 10 μM, Huh-7-DV-Fluc cells, three days, mean ± SD) was 51%. The EC50 (DENV2 [4]; Dengue virus, mean ± SD) was 3.25 ± 0.89 µM and the melting point was 130 to 132.4 °C.

For `NC(=O)c1ncn([C@@H]2O[C@H](CO)[C@@H](O)[C@H]2O)n1` [Ribavirin], the CC50 at 72 h [3] is given as 56.3 ± 2.32 µM, the “DENV2 % Inhibition at 1 μM” value (DENV2 [5]; 1 μM) is given as 10.14 ± 1.98% and the “DENV2 % Inhibition at 10 μM” value (DENV2 [5]; 10 μM) is given as 32.53 ± 2.30%. The EC50 (DENV-2) was 12.6 µM, the “SI (selectivity index, CC50/EC50)” value (DENV2 [4]) was 4.47 and the EC50 (DENV2 [4]; Dengue virus, mean ± SD) was 12.6 ± 1.17 µM. The “Huh-7 Cell % viability at 20 μM” value (Huh-7 cells [6]; 20 μM) was 71.37 ± 1.31% and the “Huh-7 Cell % viability at 200 μM” value (Huh-7 cells [6]; 200 μM) was 14.36 ± 2.14%.

For `COc1ccc(-c2cc(-c3ccc4cc(F)ccc4n3)n(-c3ccc(S(N)(=O)=O)cc3)n2)cc1` [Compound 5, 4-[5-(6-fluoroquinolin-2-yl)-3-(4-methoxyphenyl)-1H-pyrazol-1-yl]benzenesulfonamide], the EC50 (DENV-2) is given as 0.81 µM and the “fold more active anti-DENV-2 activity than ribavirin” value (DENV-2) is given as “approximately 10 fold”.

In the case of `Cc1ccc(Cc2nc(Cc3ccc(C)cc3-c3cc(C)n[nH]3)c3ccccc3n2)cc1` [Compound 2, 4-[4-methyl-2-(3-methyl-1H-pyrazol-5-yl)benzyl)-2-(4-methylbenzyl)quinazoline], the EC50 (DENV) is given as 2.6 µM.
